Patent publication US20160355457A1, “Solid Forms Comprising(-)-O-Desmethylvenlafaxine And Uses Thereof” (Sunovion Pharmaceuticals Inc., priority 2007, published 2016)

Experiments:
[1] = Moisture sorption/desorption (dynamic vapor sorption); type: physicochemical
Description: Moisture sorption/desorption data were collected on a VTI SGA-100 Vapor Sorption Analyzer. Sorption and desorption data were collected over a range of 5% to 95% relative humidity (RH) at 10% RH intervals under a nitrogen purge. For some samples, a step at 90% RH was added to the sorption cycle. Samples were not dried prior to analysis. Equilibrium criteria used for analysis were less than 0.0100% weight change in 5 minutes, with a maximum equilibration time of 3 hours if the weight criterion was not met. Data were not corrected for the initial moisture content of the samples. NaCl and PVP were used as calibration standards.

[2] = Stability properties of the solid form; type: physicochemical
[3] = decreased from 95% to 5% relative humidity
[4] = increased from 5% to 95% relative humidity

Compound	loss in mass on decreasing relative humidity (dynamic vapor sorption) [1, 3]	gain in mass on increasing relative humidity (dynamic vapor sorption) [1, 4]	also measured
CN(C)C[C@@H](c1ccc(O)cc1)C1(O)CCCCC1.Cl [Form B, monohydrochloride salt of (−)-O-desmethylvenlafaxine]	about 26%	about 25%	
CN(C)C[C@@H](c1ccc(O)cc1)C1(O)CCCCC1.Cl [Form E, monohydrochloride salt of (−)-O-desmethylvenlafaxine]	about 5.8%	about 4.7%	
CN(C)C[C@@H](c1ccc(O)cc1)C1(O)CCCCC1.Cl [Form A, (−)-1-[2-(dimethylamino)-1-(4-hydroxyphenyl)ethyl]cyclohexanol hydrochloride salt]			loss in mass on decreasing relative humidity (dynamic vapor sorption) ([1]; decreased from 90% to 5% relative humidity): about 1%; gain in mass on increasing relative humidity (dynamic vapor sorption) ([1]; increased from 5% to 90% relative humidity, hydrochloride salt): < 1%; stability properties [2]: excellent stability properties
CN(C)C[C@@H](c1ccc(O)cc1)C1(O)CCCCC1.Cl [Form G, monohydrochloride salt of (−)-O-desmethylvenlafaxine]	about 22%	about 23%	gain in mass on increasing relative humidity (dynamic vapor sorption) ([1]; increased from 5% to 90% relative humidity): about 3%
CN(C)C[C@@H](c1ccc(O)cc1)C1(O)CCCCC1.Cl [Form F, monohydrochloride salt of (−)-O-desmethylvenlafaxine]	about 33%	about 32%	
CN(C)C[C@@H](c1ccc(O)cc1)C1(O)CCCCC1.Cl [Form C, monohydrochloride salt of (−)-O-desmethylvenlafaxine]	about 27%	about 27%	
CN(C)C[C@@H](c1ccc(O)cc1)C1(O)CCCCC1.Cl [amorphous form, (−)-1-[2-(dimethylamino)-1-(4-hydroxyphenyl)ethyl]cyclohexanol monohydrochloride salt]			loss in mass on decreasing relative humidity (dynamic vapor sorption) ([1]; decreased from 95% to 5% relative humidity, monohydrochloride salt): about 32%; gain in mass on increasing relative humidity (dynamic vapor sorption) ([1]; increased from 5% to 95% relative humidity, monohydrochloride salt): about 36%
